Positions of bridges follow the written chain, without caps; N, C: chain ends. Non-standard residues stand in square brackets, D forms with d. Residues, ends and D or L forms follow the SMILES beside them.
Assays:
[1] = target: GppNHp-bound Gαs (Homo sapiens, UniProt P63092); assay: Adenylyl cyclase activity assay (Gαs-mediated adenylyl cyclase activation, cAMP production, LANCE Ultra cAMP kit); format: biochemical; parameters: made in house; host or cells: Escherichia coli BL21(DE3); conditions: 6.25 μM of GN13; in the presence of Gβ1/γ2
Sequence of GppNHp-bound Gαs (P63092 1-380 isoform P63092-2): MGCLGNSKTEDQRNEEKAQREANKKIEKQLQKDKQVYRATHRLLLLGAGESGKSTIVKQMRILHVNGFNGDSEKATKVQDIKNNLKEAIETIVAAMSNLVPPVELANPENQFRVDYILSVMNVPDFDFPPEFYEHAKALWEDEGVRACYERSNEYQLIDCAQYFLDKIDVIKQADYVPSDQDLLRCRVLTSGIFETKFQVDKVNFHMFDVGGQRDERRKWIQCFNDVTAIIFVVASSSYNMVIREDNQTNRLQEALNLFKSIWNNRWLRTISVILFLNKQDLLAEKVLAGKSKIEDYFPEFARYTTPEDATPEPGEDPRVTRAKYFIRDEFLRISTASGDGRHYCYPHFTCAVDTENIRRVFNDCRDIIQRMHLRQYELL
Excerpt: Active state binding cyclic peptide GN13 blocks Gαs-mediated adenylyl cyclase activation. In order to determine whether (Gαs/GppNHp) specific binders inhibit Gαs activity, we assayed the ability of Gαs to activate its downstream effector adenylyl cyclase (AC) (FIG. 17A). We refer to resynthesized active state binding cyclic peptides with a “GN” (Gαs/GppNHp) preceding their ranking number. […] We then evaluated the inhibitory effect of the top hits on Gαs-mediated adenylyl cyclase activation by measuring production of cAMP in a reconstituted Gαs activity assay (FIG. 17A). […] Cyclic peptides dose dependent inhibition (FIG. 17C). […] WT Gαs at a concentration of 8.5 mg/mL (about 190 μM) in 20 mM HEPES 8.0, 150 mM NaCl, 5 mM MgCl2, 1 mM EDTA-Na 8.0 was diluted to 0.5 μM in dilution buffer (1× PBS 7.4, 0.1% BSA, 1 mM EDTA-Na 8.0, 2 mM DTT, 0.1 mM MgCl2) plus 1 mM GppNHp. […] Reaction mixture was further incubated at room temperature for 2 hours and placed on ice for 5 minutes. cAMP production was initiated by addition of […] of ATP stock (1 mM ATP, 1× PBS 7.4, 0.1% BSA). The reaction was carried out at 30° C. for 10 minutes in a PCR machine and stopped by heating at 95° C. for 3 minutes. The cAMP concentrations were measured by the LANCE Ultra cAMP kit. […] The cAMP concentrations were measured by the LANCE Ultra cAMP kit. cAMP concentrations measurement by the LANCE Ultra cAMP kit. […]

[2] = target: WT Gαs (Homo sapiens, UniProt P63092); assay: Adenylyl cyclase activity assay in membranes of GNAS KO HEK293 cells transfected with WT Gαs; format: biochemical; parameters: expressed in transfected cells; host or cells: GNAS KO HEK293 cells (membranes); conditions: WT Gαs reintroduced by transient transfection
Sequence of WT Gαs (P63092 whole entry): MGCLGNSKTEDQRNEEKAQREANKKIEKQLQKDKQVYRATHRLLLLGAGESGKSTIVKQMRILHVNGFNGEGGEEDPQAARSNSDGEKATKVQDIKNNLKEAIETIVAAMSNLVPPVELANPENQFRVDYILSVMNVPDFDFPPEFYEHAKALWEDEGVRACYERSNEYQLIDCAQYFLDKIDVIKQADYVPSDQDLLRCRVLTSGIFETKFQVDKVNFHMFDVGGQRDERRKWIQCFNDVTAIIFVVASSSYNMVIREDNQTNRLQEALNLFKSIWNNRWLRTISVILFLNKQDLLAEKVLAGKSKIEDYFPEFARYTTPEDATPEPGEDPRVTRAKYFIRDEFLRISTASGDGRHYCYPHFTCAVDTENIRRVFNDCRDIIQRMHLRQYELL
Excerpt: To further assess the cellular specificity of GN13, we designed a GN13-resistant Gαs mutant based on structural analysis. […] We reasoned that mutating this serine residue to a bulky residue should create a drug-resistant Gαs mutant that blocks the GN13-Gαs interaction but would have little effect on adenylyl cyclase activation. […] By contrast, when the drug resistant mutant Gαs S275L was reintroduced into GNAS KO cells, the inhibitory effect of GN13 was abolished (FIG. 3I), providing further evidence that the observed pharmacological activity is due to GN13 binding to the switch II/α3 pocket in Gαs.
GN13 inhibition of Gαs proteins in HEK293 cell membranes (FIG. 17F and FIG. 18F).
a. Cell membrane preparation: HEK293cells, GNAS KO HEK293 cells were plated two day before transfection at a density of 1M cells per 10 cm plate. […] The protein concentrations were measured using BCA, and were normalized to 750 μg/mL. […] The cAMP concentrations were measured by the LANCE Ultra cAMP kit. […]
A cAMP standard curve was generated in the same plate using the 50 μM cAMP standard in the kit. […] 10 μL of each diluted sample was mixed with 5 μL of 4× Eu-cAMP tracer and 5 μL of 4× ULight-anti-cAMP in a white, opaque Optiplate-384 microplate, incubated for 1 hour at room temperature, and the time-resolved fluorescence resonance energy transfer (TR-FRET) signals were read on a Spark 20M plate reader. […]

SMILES: CC[C@H](C)[C@@H]1NC(=O)[C@H](C)NC(=O)[C@H](Cc2ccc(O)cc2)NC(=O)[C@H](C(C)C)NC(=O)[C@H](CO)NC(=O)[C@H](CCC(=O)O)NC(=O)[C@H](Cc2ccccc2)NC(=O)[C@@H](Cc2ccc(O)cc2)NC(=O)CSC[C@@H](C(=O)NCC(N)=O)NC(=O)[C@H](CC(C)C)NC(=O)[C@H]([C@@H](C)O)NC(=O)CNC(=O)[C@H](Cc2c[nH]c3ccccc23)NC1=O [GN13] ({CH2CO}-[dY]FESVYAIWGTLCG-NH2; thioether N-13)
- inhibition of adenylyl cyclase activation by Gαs WT [1]: inhibits
- inhibition of isoproterenol-mediated cAMP production in cell membranes [2]: able to inhibit

From patent publication US20240336657A1, “G-ALPHA-S PEPTIDE INHIBITORS AND USES THEREOF” (The Regents of the University of California, priority 2021, published 2024)
